Laboratory results reported in PubChem BioAssay (NCI).
Where “and” joins values, the source holds several entries; their conditions need not be identical. Identical values can stand only once.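 How tested: cells in 96-well plates exposed to compound for 48 hours at five concentrations. Abbreviation: GI50, concentration required for 50% inhibition of growth. Definition used: TGI = concentration required for complete inhibition of growth.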

Legend:
Experiment in all cases: DTP human tumour cell line panel, 48 h
[1] = tested on: OVCAR-4 ovarian
[2] = tested on: TK-10 renal
[3] = tested on: SF-539 CNS
[4] = tested on: UACC-257 melanoma
[5] = tested on: SW-620 colon
[6] = tested on: IGROV1 ovarian
[7] = tested on: SR leukemia
[8] = tested on: NCI-H460 lung
[9] = tested on: SF-268 CNS
[10] = tested on: UACC-62 melanoma

In the case of `Nc1cc(-c2ccc(Cl)cc2)nn1-c1nnc(/C=C/c2ccco2)c(=O)[nH]1`, the GI50 [1] is reported as 2.64 µM, the TGI [1] is reported as 13.4 µM and the GI50 [2] is reported as 5.6 µM. It also gave a TGI [2] of 36.1 µM, a GI50 [3] of 4.4 µM and a TGI [3] of 22.4 µM. The GI50 [4] was 6.55 µM, the TGI [4] was 47.3 µM and the GI50 [5] was 5 µM. It also gave a TGI [5] greater than 100 µM, a GI50 [6] of 4.89 µM and a TGI [6] of 37.8 µM. The GI50 [7] was 2.53 µM, the TGI [7] was greater than 100 µM and the GI50 [8] was 2.15 µM. It also gave a TGI [8] of 15.3 µM, a GI50 [9] of 3.37 µM and a TGI [9] of 39 µM. The GI50 [10] was 5.45 µM and the TGI [10] was greater than 58.6 µM.

`Cc1c(C(=O)/C=C/c2ccccc2[N+](=O)[O-])[n+](=O)c2ccccc2n1[O-]` gave a TGI [1] of 22.8 µM, a TGI [3] of 10.2 µM and a TGI [4] of 20.4 µM. For the same compound, the TGI [5] was 17.5 µM, the TGI [6] was 29.9 µM and the TGI [7] was 31.6 µM. It also gave a TGI [8] of 22.5 µM.

`COc1ccc(Nc2nccc(N3CCN(c4c5ccc(Cl)cc5nc5ccc(OC)cc45)CC3)n2)cc1` was tested, and the GI50 [1] was 18.2 µM, the TGI [1] was greater than 100 µM and the GI50 [2] was 11.5 µM. For the same compound, the TGI [2] was greater than 100 µM, the GI50 [3] was 22.7 µM and the TGI [3] was greater than 100 µM. It also gave a GI50 [4] greater than 100 µM, a TGI [4] greater than 100 µM and a GI50 [5] of 7.19 µM. It also gave a TGI [5] greater than 100 µM, a GI50 [6] of 42.4 µM and a TGI [6] greater than 100 µM. It also gave a GI50 [7] of 2.92 µM, a TGI [7] greater than 100 µM and a GI50 [8] of 8.13 µM. For the same compound, the TGI [8] was greater than 100 µM, the GI50 [9] was 11.8 µM and the TGI [9] was greater than 100 µM. For the same compound, the GI50 [10] was 16.8 µM and the TGI [10] was greater than 100 µM.

Compound `CSc1ccc(N(C)c2nc(C)nc3c2CCC3)cc1` has a GI50 [1] of less than 0.01 µM, a TGI [1] greater than 100 µM and a GI50 [3] of less than 0.01 µM. It also gave a TGI [3] of less than 0.01 µM, a GI50 [4] of 11.6 µM and a TGI [4] of 48.4 µM. For the same compound, the GI50 [5] was less than 0.01 µM, the TGI [5] was greater than 100 µM and the GI50 [6] was less than 0.01 µM. For the same compound, the TGI [6] was greater than 100 µM, the GI50 [7] was less than 0.01 µM and the TGI [7] was 11.6 µM. For the same compound, the GI50 [8] was less than 0.01 µM, the TGI [8] was 19 µM and the GI50 [9] was less than 0.01 µM. It also gave a TGI [9] of 60.4 µM, a GI50 [10] of less than 0.01 µM and a TGI [10] of 25 µM.

`O=S1CSSC1` was tested, and the TGI [1] was 33.9 µM, the TGI [2] was greater than 100 µM and the TGI [3] was 40.1 µM. It also gave a TGI [4] of 36.4 µM, a TGI [5] of 31.7 µM and a TGI [6] of 54.9 µM. It also gave a TGI [7] of 47.2 µM, a TGI [9] of 58.4 µM and a TGI [10] of 25.8 µM.

With `CC1(C)CC(=O)C(CC2C(=O)c3ccccc3C2=O)C(=O)C1` the TGI [1] was greater than 100 µM, the TGI [2] was greater than 100 µM and the TGI [3] was greater than 100 µM. It also gave a TGI [4] greater than 100 µM, a TGI [5] greater than 100 µM and a TGI [6] greater than 100 µM. It also gave a TGI [7] greater than 100 µM, a TGI [8] greater than 100 µM and a TGI [9] greater than 100 µM. It also gave a TGI [10] greater than 100 µM.

`O=C(O)c1ccccc1C(=O)c1ccc2c(c1)Cc1ccccc1-2` showed a TGI [1] greater than 100 µM, a TGI [2] greater than 100 µM and a TGI [3] greater than 100 µM. For the same compound, the TGI [4] was greater than 100 µM, the TGI [5] was greater than 100 µM and the TGI [6] was greater than 100 µM. For the same compound, the TGI [7] was greater than 100 µM, the TGI [8] was greater than 100 µM and the TGI [9] was greater than 100 µM. The TGI [10] was greater than 100 µM.

`CN1c2ccccc2SC2C(c3ccccc3)=NOC21` (centres undefined) was tested, and the TGI [1] was greater than 100 µM, the TGI [2] was 80 µM and the TGI [3] was greater than 100 µM. It also gave a TGI [5] greater than 100 µM, a TGI [6] greater than 100 µM and a TGI [7] greater than 100 µM. It also gave a TGI [8] greater than 100 µM, a TGI [9] greater than 100 µM and a TGI [10] greater than 100 µM.

Compound `Cc1ccc2oc(=O)c(-c3ccccc3)nc2c1` has a TGI [1] of 75.2 µM, a TGI [2] greater than 100 µM and a TGI [3] of 50.5 µM. It also gave a TGI [4] greater than 100 µM, a TGI [5] greater than 100 µM and a TGI [7] greater than 100 µM. It also gave a TGI [8] greater than 100 µM and a TGI [9] greater than 100 µM.

For `O=C(Cl)C1=C(c2ccccc2)C1c1ccccc1` (centres undefined), the TGI [1] was greater than 100 µM, the TGI [2] was greater than 100 µM and the TGI [3] was greater than 100 µM. For the same compound, the TGI [4] was greater than 100 µM, the TGI [5] was greater than 100 µM and the TGI [6] was greater than 100 µM. It also gave a TGI [7] greater than 100 µM, a TGI [8] greater than 100 µM and a TGI [9] greater than 100 µM. The TGI [10] was greater than 100 µM.

`Cc1ccccc1/C=C/C(=O)c1ccccc1` showed a TGI [1] of 33.2 µM, a TGI [3] of 28.7 µM and a TGI [4] of 42.4 µM. The TGI [5] was greater than 10 µM, the TGI [6] was 62.1 µM and the TGI [7] was greater than 100 µM. It also gave a TGI [8] of 38.7 µM, a TGI [9] of 30 µM and a TGI [10] of 38 µM.

In the case of `CCCCCCC(C)CCCCCCCCCCC(=O)O` (centres undefined), the TGI [1] is reported as greater than 100 µM, the TGI [2] is reported as greater than 100 µM and the TGI [3] is reported as greater than 100 µM. For the same compound, the TGI [4] was greater than 100 µM, the TGI [5] was greater than 100 µM and the TGI [6] was greater than 100 µM. For the same compound, the TGI [7] was greater than 100 µM, the TGI [8] was greater than 100 µM and the TGI [9] was greater than 100 µM. It also gave a TGI [10] greater than 100 µM.

Compound `COc1ccc(C2Oc3c(c(O)cc4c3[C@H](c3ccc(O)cc3O)[C@H](O)C(c3ccc(O)c(O)c3)O4)C[C@@H]2O)cc1O` (some centres undefined) has a TGI [1] greater than 100 µM, a TGI [2] greater than 100 µM and a TGI [3] greater than 100 µM. The TGI [4] was greater than 100 µM, the TGI [5] was greater than 100 µM and the TGI [6] was greater than 100 µM. The TGI [7] was greater than 100 µM, the TGI [8] was greater than 100 µM and the TGI [9] was greater than 100 µM. It also gave a TGI [10] greater than 100 µM.

`COc1ccc(F)c(F)c1C(=O)c1cnc(NC2CCN(S(C)(=O)=O)CC2)nc1N` was tested, and the GI50 [1] was 1.44 µM and 1.41 µM, the TGI [1] was greater than 27.9 µM and the GI50 [2] was 0.493 µM and 0.333 µM. For the same compound, the TGI [2] was greater than 20.3 µM, the GI50 [3] was 0.536 µM and 0.406 µM and the TGI [3] was 3.13 µM and 3.07 µM. The GI50 [4] was 1.44 µM and 1.61 µM, the TGI [4] was 6.38 µM and 8.94 µM and the GI50 [5] was 0.183 µM and 0.108 µM. For the same compound, the TGI [5] was greater than 100 µM, the GI50 [6] was 1.06 µM and 0.387 µM and the TGI [6] was greater than 100 µM. For the same compound, the GI50 [7] was 0.188 µM and 0.114 µM, the GI50 [8] was 0.165 µM and 0.117 µM and the TGI [8] was greater than 100 µM. The GI50 [9] was 1.14 µM and 0.527 µM, the TGI [9] was 7.16 µM and > 7.59 µM and the GI50 [10] was 0.655 µM and 0.284 µM. For the same compound, the TGI [10] was 2.77 µM and 2.45 µM.

For `Cc1ccc(C)c(N2C(=O)C(=O)C(c3nc4ccccc4s3)C(=Nc3cccc4c(=O)[nH][nH]c(=O)c34)C2=O)c1` (centres undefined), the TGI [1] was greater than 100 µM, the TGI [2] was greater than 100 µM and the TGI [3] was greater than 100 µM. For the same compound, the TGI [4] was greater than 100 µM, the TGI [5] was greater than 100 µM and the TGI [6] was greater than 100 µM. The TGI [7] was greater than 100 µM, the TGI [8] was greater than 100 µM and the TGI [9] was greater than 100 µM. It also gave a TGI [10] greater than 100 µM.

Compound `CC1c2ccccc2N=C2SC(=S)N3CCN=C3N21` (centres undefined) has a GI50 [1] greater than 100 µM, a TGI [1] greater than 100 µM and a GI50 [2] greater than 100 µM. For the same compound, the TGI [2] was greater than 100 µM, the GI50 [3] was greater than 100 µM and the TGI [3] was greater than 100 µM. For the same compound, the GI50 [4] was greater than 100 µM, the TGI [4] was greater than 100 µM and the GI50 [5] was greater than 100 µM. It also gave a TGI [5] greater than 100 µM, a GI50 [6] greater than 100 µM and a TGI [6] greater than 100 µM. It also gave a GI50 [7] greater than 100 µM, a TGI [7] greater than 100 µM and a GI50 [8] greater than 100 µM. The TGI [8] was greater than 100 µM, the GI50 [9] was greater than 100 µM and the TGI [9] was greater than 100 µM. The GI50 [10] was greater than 100 µM and the TGI [10] was greater than 100 µM.

In the case of `COc1ccc(-c2cnoc2-c2cc(OC)c3c(c2)OCCO3)cc1`, the GI50 [1] is reported as 14 µM, the TGI [1] is reported as greater than 100 µM and the GI50 [2] is reported as 16.7 µM. For the same compound, the TGI [2] was greater than 100 µM, the GI50 [3] was 0.0235 µM and the TGI [3] was 0.0907 µM. The GI50 [4] was 11.5 µM, the TGI [4] was greater than 100 µM and the GI50 [5] was 0.0302 µM. For the same compound, the TGI [5] was greater than 100 µM, the GI50 [6] was 0.0924 µM and the TGI [6] was greater than 100 µM. It also gave a GI50 [7] of 0.0226 µM, a TGI [7] of 6.29 µM and a GI50 [8] of 0.0327 µM. For the same compound, the TGI [8] was 12.8 µM, the GI50 [9] was 0.127 µM and the TGI [9] was greater than 100 µM. It also gave a GI50 [10] of less than 0.015 µM and a TGI [10] greater than 100 µM.
